PubChem BioAssay (NCI)
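Where inhibition never reached the appropriate level, the endpoint shown equals the highest concentration tested. Otherwise, values were interpolated linearly from a five-concentration, 48-hour dose response in 96-well plates. The concentration for full growth arrest is given as TGI.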

How the values were obtained:
Assay in all cases: DTP human tumour cell line panel, 48 h
[1] = system: MOLT-4 leukemia
[2] = system: OVCAR-5 ovarian
[3] = system: SNB-19 CNS
[4] = system: SK-MEL-2 melanoma
[5] = system: HOP-92 NSCLC
[6] = system: COLO 205 colon
[7] = system: U251 CNS
[8] = system: MDA-MB-435
[9] = system: T-47D breast
[10] = system: A498 renal
[11] = system: MALME-3M melanoma
[12] = system: NCI-H23 lung
[13] = system: HCC-2998 colon
[14] = system: K-562 leukemia
[15] = system: SF-539 CNS
[16] = system: NCI-H460 lung
[17] = system: IGROV1 ovarian
[18] = system: OVCAR-3 ovarian
[19] = system: 786-0 renal
[20] = system: SNB-75 CNS
[21] = system: A549 NSCLC
[22] = system: SW-620 colon
[23] = system: DU-145 prostate
[24] = system: OVCAR-8 ovarian
[25] = system: HL-60(TB) leukemia
[26] = system: CAKI-1 renal
[27] = system: SR leukemia
[28] = system: HCT-15 colon
[29] = system: NCI/ADR-RES ovarian
[30] = system: HOP-62 NSCLC
[31] = system: HS 578T breast
[32] = system: SK-MEL-5 melanoma
[33] = system: BT-549 breast
[34] = system: UACC-257 melanoma
[35] = system: SF-268 CNS
[36] = system: MDA-N
[37] = system: LOX IMVI melanoma
[38] = system: CCRF-CEM leukemia
[39] = system: KM12 colon
[40] = system: HT29 colon
[41] = system: EKVX NSCLC
[42] = system: SN12C renal
[43] = system: ACHN renal
[44] = system: UO-31 renal
[45] = system: MCF7 breast
[46] = system: OVCAR-4 ovarian
[47] = system: SF-295 CNS
[48] = system: SK-OV-3 ovarian
[49] = system: M14 melanoma
[50] = system: RPMI-8226 leukemia
[51] = system: PC-3 prostate
[52] = system: HCT-116 colon
[53] = system: MDA-MB-231 breast
[54] = system: UACC-62 melanoma
[55] = system: SK-MEL-28 melanoma
[56] = system: TK-10 renal
[57] = system: RXF 393 renal
[58] = system: NCI-H226 lung
[59] = system: NCI-H522 lung

For `Cc1ccc(O)c(C2=CC3=NNC(=O)C3C(c3cccc(Br)c3)C2)c1` (stereo not given), the TGI [1] was over 75 µM, the TGI [2] was 68.5 µM and the TGI [3] was over 75 µM. It also gave a TGI [4] of over 75 µM, a TGI [5] of over 75 µM and a TGI [6] of 22.8 µM. The TGI [7] was over 75 µM, the TGI [8] was over 75 µM and the TGI [9] was over 75 µM. The TGI [10] was over 75 µM, the TGI [11] was 71.1 µM and the TGI [12] was over 75 µM. The TGI [13] was 31.7 µM, the TGI [14] was over 75 µM and the TGI [15] was over 75 µM. It also gave a TGI [16] of over 75 µM, a TGI [17] of over 75 µM and a TGI [18] of 68.7 µM. The TGI [19] was over 75 µM, the TGI [20] was 70 µM and the TGI [21] was over 75 µM. It also gave a TGI [22] of over 75 µM, a TGI [23] of over 75 µM and a TGI [24] of 64.8 µM. For the same compound, the TGI [25] was over 75 µM, the TGI [26] was over 75 µM and the TGI [27] was over 75 µM. The TGI [28] was over 75 µM, the TGI [29] was over 75 µM and the TGI [30] was over 75 µM. It also gave a TGI [31] of over 75 µM, a TGI [32] of over 75 µM and a TGI [33] of 64.1 µM. For the same compound, the TGI [34] was over 75 µM, the TGI [35] was over 75 µM and the TGI [36] was over 75 µM. It also gave a TGI [37] of 27.3 µM, a TGI [38] of over 75 µM and a TGI [39] of 39.5 µM. For the same compound, the TGI [40] was over 75 µM, the TGI [41] was over 75 µM and the TGI [42] was 63.5 µM. The TGI [43] was over 75 µM, the TGI [44] was over 75 µM and the TGI [45] was 31.7 µM. It also gave a TGI [46] of 37 µM, a TGI [47] of 51.6 µM and a TGI [48] of 63.9 µM. For the same compound, the TGI [49] was over 75 µM, the TGI [50] was 72.8 µM and the TGI [51] was over 75 µM. The TGI [52] was over 75 µM, the TGI [53] was 59.4 µM and the TGI [54] was 70.9 µM. For the same compound, the TGI [55] was over 75 µM, the TGI [56] was 41.3 µM and the TGI [57] was 28.2 µM.
With `Cn1c(-c2ccccc2)cc(-c2cccs2)c1-c1ccsc1` the TGI [1] was over 100 µM, the TGI [2] was over 100 µM and the TGI [3] was over 100 µM. For the same compound, the TGI [4] was over 100 µM, the TGI [5] was over 100 µM and the TGI [6] was over 100 µM. The TGI [7] was over 100 µM, the TGI [8] was over 100 µM and the TGI [9] was over 100 µM. The TGI [10] was over 100 µM, the TGI [12] was over 100 µM and the TGI [13] was over 100 µM. For the same compound, the TGI [14] was over 100 µM, the TGI [15] was over 100 µM and the TGI [16] was over 100 µM. The TGI [17] was over 100 µM, the TGI [18] was over 100 µM and the TGI [19] was over 100 µM. The TGI [20] was over 100 µM, the TGI [21] was over 100 µM and the TGI [22] was over 100 µM. For the same compound, the TGI [23] was over 100 µM, the TGI [24] was over 100 µM and the TGI [25] was over 100 µM. For the same compound, the TGI [26] was over 100 µM, the TGI [58] was over 100 µM and the TGI [27] was over 100 µM. The TGI [28] was over 100 µM, the TGI [29] was over 100 µM and the TGI [30] was over 100 µM. The TGI [31] was over 100 µM, the TGI [32] was over 100 µM and the TGI [33] was over 100 µM. It also gave a TGI [34] of over 100 µM, a TGI [35] of over 100 µM and a TGI [36] of over 100 µM. For the same compound, the TGI [37] was over 100 µM, the TGI [38] was over 100 µM and the TGI [39] was over 100 µM. The TGI [40] was over 100 µM, the TGI [41] was over 100 µM and the TGI [42] was over 100 µM. The TGI [43] was over 100 µM, the TGI [44] was over 100 µM and the TGI [45] was over 100 µM. For the same compound, the TGI [46] was over 100 µM, the TGI [47] was over 100 µM and the TGI [48] was over 100 µM. The TGI [49] was over 100 µM, the TGI [50] was over 100 µM and the TGI [51] was over 100 µM. It also gave a TGI [52] of over 100 µM, a TGI [53] of over 100 µM and a TGI [54] of over 100 µM. It also gave a TGI [56] of over 100 µM and a TGI [57] of over 100 µM.
Compound `COC(=O)c1cnc(Cl)c([N+](=O)[O-])c1` has a TGI [59] of 3.28 µM, a TGI [2] of 32 µM and a TGI [3] of 32.4 µM. The TGI [4] was 31.5 µM, the TGI [5] was 4.25 µM and the TGI [6] was 12.2 µM. For the same compound, the TGI [7] was 4.23 µM, the TGI [8] was 19.4 µM and the TGI [9] was 4.68 µM. The TGI [10] was 40 µM, the TGI [12] was 35.2 µM and the TGI [13] was 21.5 µM. The TGI [14] was 4.8 µM, the TGI [15] was 32.1 µM and the TGI [16] was 31.5 µM. The TGI [17] was 8.1 µM, the TGI [18] was 28.7 µM and the TGI [19] was 11.2 µM. It also gave a TGI [20] of 34.8 µM, a TGI [21] of 41.6 µM and a TGI [22] of 4.78 µM. It also gave a TGI [23] of 21.3 µM, a TGI [24] of 3.95 µM and a TGI [25] of 5.73 µM. The TGI [26] was 25.7 µM, the TGI [58] was 36.5 µM and the TGI [27] was 4.24 µM. For the same compound, the TGI [28] was 4.21 µM, the TGI [29] was 68.3 µM and the TGI [30] was 36.5 µM. It also gave a TGI [31] of 76.4 µM, a TGI [32] of 27.2 µM and a TGI [33] of 32.3 µM. For the same compound, the TGI [34] was 20.3 µM, the TGI [35] was 7.6 µM and the TGI [36] was 20.1 µM. For the same compound, the TGI [37] was 3.68 µM, the TGI [38] was 5.1 µM and the TGI [39] was 35 µM. It also gave a TGI [40] of 32.6 µM, a TGI [41] of 3.28 µM and a TGI [42] of 25.8 µM. It also gave a TGI [43] of 25.1 µM, a TGI [44] of 3.55 µM and a TGI [45] of 4.34 µM. For the same compound, the TGI [46] was 36.6 µM, the TGI [47] was 33.5 µM and the TGI [48] was 33.8 µM. It also gave a TGI [49] of 27 µM, a TGI [50] of 5.3 µM and a TGI [51] of 22.6 µM. The TGI [52] was 8.77 µM, the TGI [53] was 30.1 µM and the TGI [54] was 32.1 µM. For the same compound, the TGI [55] was 36 µM, the TGI [56] was 30.3 µM and the TGI [57] was 25.1 µM.
